Assay results as given in patent publication US20230000089A1, “COMPOSITION ENRICHED IN POLYPHENOLS AND FLAVONOIDS FOR USE AS BIOSTIMULANT AND ANTIMICROBIAL FOR AGRICULTURE APPLICATIONS” (BOTANITEC SPA, priority 2019, published 2023).

What was measured:
Assay in all cases: Inhibition halo
Format in all cases: cell-based
Details in all cases: positive control antibiotic 0.1 g/L
Escherichia coli = system: Escherichia coli
Method: FIG. 7. Inhibitory effect of the composition of the invention on Escherichia coli.
(§1) Routine experiments were performed comparing the inhibition halos, using an antibiotic as a positive control: carbamycin 0.1 g/L for Bacillus sp; chloramphenicol 0.1 g/L for Enterobacter aerogenes; and, ampicillin 0.1 g/L. for Salmonella sp, Staphylococcus aureus and Escherichia coli as shown in Table 7 below.

Staphylococcus aureus = system: Staphylococcus aureus
Method: as §1

Salmonella sp = system: Salmonella sp
Method: as §1

Enterobacter aerogenes = system: Enterobacter aerogenes
Method: as §1

Bacillus sp = system: Bacillus sp
Method: as §1

## CC1(C)S[C@@H]2[C@H](NC(=O)[C@H](N)c3ccccc3)C(=O)N2[C@H]1C(=O)O [ampicillin]
Escherichia coli
  Inhibition halo: 52 mm
Staphylococcus aureus
  Inhibition halo: 25 mm
Salmonella sp
  Inhibition halo: 28 mm

## O=C(N[C@H](CO)[C@H](O)c1ccc([N+](=O)[O-])cc1)C(Cl)Cl [chloramphenicol]
Enterobacter aerogenes
  Inhibition halo: 50 mm

## carbamycin
Bacillus sp
  Inhibition halo: 31 mm
